Results reported in ChEMBL document CHEMBL1201862, “PubChem BioAssay data set” (2004).
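All cell lines were grown in 96-well plates and treated with compound for 48 hours. The concentration for 50% growth inhibition is given as GI50.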 Activity calls are given as the source filed them. Rule as the data show it: active = GI50 up to about 1.1 µM and inactive = higher.

What was measured:
Assay in all cases: NCI anticancer screen, dose series, 48 h
A498 = system: A498
BT-549 = system: BT-549
CCRF-CEM = system: CCRF-CEM
EKVX = system: EKVX
K562 = system: K562
MCF7 = system: MCF7
MDA-MB-231 = system: MDA-MB-231
MDA-MB-435 = system: MDA-MB-435
MDA-N = system: MDA-N
NCI-H226 = system: NCI-H226
NCI/ADR-RES = system: NCI/ADR-RES
OVCAR-4 = system: OVCAR-4
PC-3 = system: PC-3
SF-268 = system: SF-268
SK-MEL-2 = system: SK-MEL-2
SNB-75 = system: SNB-75
UACC-257 = system: UACC-257
UACC-62 = system: UACC-62
HL-60 = system: HL-60
HCC 2998 = system: HCC 2998

Row | Compound | GI50 (A498) | GI50 (BT-549) | GI50 (CCRF-CEM) | GI50 (EKVX) | GI50 (K562) | GI50 (MCF7) | GI50 (MDA-MB-231) | GI50 (MDA-MB-435) | GI50 (MDA-N) | GI50 (NCI-H226) | GI50 (NCI/ADR-RES) | GI50 (OVCAR-4) | GI50 (PC-3) | GI50 (SF-268) | GI50 (SK-MEL-2) | GI50 (SNB-75) | GI50 (UACC-257) | GI50 (UACC-62) | GI50 (HL-60) | GI50 (HCC 2998)
1 | Cn1c(COC(=O)NC2CCCCC2)c(COC(=O)NC2CCCCC2)c2ccc3ccccc3c21 | 17.5 µM (inactive) | 55.3 µM (inactive) | 9.77 µM (inactive) | 47.2 µM (inactive) | 51.2 µM (inactive) | 20.5 µM (inactive) | 69.5 µM (inactive) | 14.3 µM (inactive) | > 100 µM (inactive) | 23.7 µM (inactive) | 23.1 µM (inactive) | 53.3 µM (inactive) | 75.9 µM (inactive) | 22.4 µM (inactive) | 31.6 µM (inactive) | 26.1 µM (inactive) | 93.1 µM (inactive) | 48.6 µM (inactive) |  | 
2 | CCOC(=O)C1(C/C=C/CBr)CCc2ccccc2C1=O (centres undefined) | 18.5 µM (inactive) | 16.7 µM (inactive) | 5.25 µM (inactive) | 27.5 µM (inactive) |  | 7.89 µM (inactive) | 18.2 µM (inactive) | 14.3 µM (inactive) | 14.4 µM (inactive) | 6.95 µM (inactive) | 22 µM (inactive) | 13.6 µM (inactive) | 15.7 µM (inactive) | 18.5 µM (inactive) | 14.1 µM (inactive) | 10.4 µM (inactive) | 15.9 µM (inactive) | 10.6 µM (inactive) | 6.3 µM (inactive) | 
3 | O=C(c1nsc(Cl)c1Cl)N1CCCCC1 |  | > 100 µM (inactive) | > 100 µM (inactive) | > 100 µM (inactive) | > 100 µM (inactive) | > 100 µM (inactive) | > 100 µM (inactive) | > 100 µM (inactive) | > 100 µM (inactive) | > 100 µM (inactive) | > 100 µM (inactive) | > 100 µM (inactive) | > 100 µM (inactive) | > 100 µM (inactive) |  | > 100 µM (inactive) | > 100 µM (inactive) | > 100 µM (inactive) | > 100 µM (inactive) | > 100 µM (inactive)
4 | C[C@]12CC/C(=N\O)C=C1CC[C@@H]1[C@@H]2CC[C@]2(C)C(=N/O)/C(=C/c3cccnc3)C[C@@H]12 | 14.5 µM (inactive) | 12.6 µM (inactive) | 7.38 µM (inactive) | 18.4 µM (inactive) | 6.98 µM (inactive) | 6.97 µM (inactive) | 17.7 µM (inactive) | 15.9 µM (inactive) | 12.5 µM (inactive) | 3.63 µM (inactive) | 14.3 µM (inactive) | 18.1 µM (inactive) | 6.95 µM (inactive) |  | 19.8 µM (inactive) |  | 17.9 µM (inactive) | 3.3 µM (inactive) | 0.338 µM (active) | 
5 | CC(=O)OC/C=C/[C@H](O[Si](C)(C)C(C)(C)C)[C@@H](O)/C=C/COC(C)=O | > 100 µM (inactive) | > 100 µM (inactive) | 26 µM (inactive) | > 100 µM (inactive) | 23 µM (inactive) | 49.5 µM (inactive) | > 100 µM (inactive) | > 100 µM (inactive) | > 100 µM (inactive) | > 100 µM (inactive) | > 100 µM (inactive) | > 100 µM (inactive) | > 100 µM (inactive) | > 100 µM (inactive) | > 100 µM (inactive) | 5.45 µM (inactive) | > 100 µM (inactive) | > 100 µM (inactive) |  | > 100 µM (inactive)
6 | COC(=O)C1(O)C(c2ccccc2)NC2(C)CCCC21 (centres undefined) | > 100 µM (inactive) | > 100 µM (inactive) | > 100 µM (inactive) |  |  | > 100 µM (inactive) | > 100 µM (inactive) | > 100 µM (inactive) | > 100 µM (inactive) | > 100 µM (inactive) | > 100 µM (inactive) | > 100 µM (inactive) | > 100 µM (inactive) | > 100 µM (inactive) | > 100 µM (inactive) | > 100 µM (inactive) | > 100 µM (inactive) | > 100 µM (inactive) | > 100 µM (inactive) | 
7 | C=C1C(=O)O[C@H]2[C@H]1CC(=O)/C(C)=C/CC[C@@]1(C)O[C@@H]21 | 1.64 µM (inactive) | 0.423 µM (active) | 0.0841 µM (active) |  |  | 0.392 µM (active) | 1.05 µM (active) | 1.53 µM (inactive) | 0.259 µM (active) | 4.26 µM (inactive) | 1.4 µM (inactive) | 2.93 µM (inactive) | 2.19 µM (inactive) | 3.45 µM (inactive) | 3.03 µM (inactive) | 16.7 µM (inactive) |  | 1.37 µM (inactive) |  | 2.4 µM (inactive)
8 | CC(=O)OC1C(COC(=O)c2ccccc2)OC(Nc2ncc(-c3ccc(Br)cc3)s2)C(OC(=O)c2ccccc2)C1OC(=O)c1ccccc1 (centres undefined) |  | > 100 µM (inactive) |  | > 100 µM (inactive) | > 100 µM (inactive) | > 100 µM (inactive) | > 100 µM (inactive) | > 100 µM (inactive) | > 100 µM (inactive) | > 100 µM (inactive) | > 10 µM (inactive) | > 100 µM (inactive) | > 100 µM (inactive) | > 100 µM (inactive) | 14.5 µM (inactive) | > 100 µM (inactive) | > 100 µM (inactive) | > 100 µM (inactive) |  | 
